Results from patent US20120071458A1, “METHODS FOR TREATING OBESITY” (priority 2006, published 2012).
Like-named read-outs stand apart in the source and are kept apart here.

Experiments:
[1] = AEGR-733/ezetimibe combination therapy patient study: percentage change in body mass; format: in vivo, human
Description: The primary parameter of efficacy in this study is the percentage change in body mass after 12 weeks of therapy.
Approximately 85 subjects were randomized into one of three treatment arms with equal probability. […] Enrolled patients had initial BMIs of both greater than and less than 30 kg/m^2. Patients were not instructed to implement lifestyle changes to induce weight loss. Patients were placed on a heart healthy low fat diet 4-5 weeks prior to start of dosing.
In treatment arm 1, subjects received two capsules: AEGR-733 (5 mg) plus an ezetimibe placebo. In effect, treatment arm 1 represents monotherapy with AEGR-733. In treatment arm 2, subjects received two capsules: an AEGR-733 placebo plus ezetimibe (10 mg). In effect treatment arm 2 represents monotherapy with ezetimibe. In treatment arm 3, subjects received two capsules: an AEGR-733 (5 mg) capsule plus an ezetimibe (10 mg) capsule. Treatment arm 3 patients, in effect, received a combination therapy.
After 4 weeks of treatment, subjects in arms 1 and 3 received a step-up in concentration of AEGR-733 from 5 mg to 7.5 mg for 4 weeks. Thereafter, subjects in arms 1 and 3 received a second step-up in concentration in AEGR-733 from 7.5 mg to 10 mg for 4 more additional weeks of treatment. Subjects in arm 2 continued to receive AEGR-733 matching placebo for the entire 12 weeks of treatment. Subjects randomized to ezetimibe 10 mg in arms 2 and 3 and ezetimibe placebo in arm 1 remained on these doses for the entire 12-week treatment period.
Throughout the study, changes in body weight of the subjects are measured as part of vital signs collection.
FIG. 3 depicts the same data only for those patients with a BMI of greater than 30 kg/m^2. FIG. 4 depicts the same data only for those patients with a BMI of less than or equal to 30 kg/m^2.

[2] = cited from earlier work
[3] = entire cohort, after 12 weeks of daily administration (FIG. 1), AEGR-733 5 then 7.5 then 10 mg, ezetimibe 10 mg
[4] = patients with initial BMI greater than 30 kg/m^2 (FIG. 3), after 12 weeks
[5] = patients with initial BMI less than 30 kg/m^2 (FIG. 4), after 12 weeks

## O=C(NC1CCN(CCCCC2(C(=O)NCC(F)(F)F)c3ccccc3-c3ccccc32)CC1)c1ccccc1-c1ccc(C(F)(F)F)cc1 [AEGR-733, N-(2,2,2-Trifluorethyl)-9-[4-[4-[[[4′-(trifluoromethyl)[1,1′biphenyl]-2-Y1]carbonyl]amino]-1-piperidinyl]butyl]9H-fluorene-9-carboxamide]
[1]; [3]
  percent change in body mass: −1.0%
[1]; [4]
  percent change in body mass: −0.4%
[1]; [5]
  percent change in body mass: −1.4%
[2]; 25 mg/day
  adverse events: found to cause gastrointestinal disorders, abnormalities in liver function and/or hepatic steatosis

## O=C1[C@H](CC[C@H](O)c2ccc(F)cc2)[C@@H](c2ccc(O)cc2)N1c1ccc(F)cc1 [ezetimibe]
[1]; [3]
  percent change in body mass: −0.2%
[1]; [4]
  percent change in body mass: −1.0%
[1]; [5]
  percent change in body mass: +0.4%

## Cc1cc(C)c2c3ccccc3n(Cc3ccc(C(C(=O)NC(CO)c4ccccc4)C4CCCC4)cc3)c2n1 [implitapide, (2S)-2-cyclopentyl-2-[4-[2,4-dimethyl-9H-pyrido[2,3-b]indol-9-yl)methyl]phenyl]-N-[(1S)-2-hydroxy-1-phenylethyl]ethanamide]
[2]; 80 mg/day
  adverse events: found to cause gastrointestinal disorders, abnormalities in liver function and/or hepatic steatosis
[2]; 160 mg/day
  adverse events: found to cause gastrointestinal disorders, abnormalities in liver function and/or hepatic steatosis
